The results in this text go back to PubChem BioAssay AID286 (DTP/NCI, 2004).

SMILES strings stand for the structures. Several values for one entry are separate records, joined by “and”; a condition that tells them apart may be missing. Equal entries are not always repeated. Inconclusive results and toxic doses are left out.

The test has as its system BDF1 mice, M5076 sarcoma ip, median survival T/C. Briefly: NCI In Vivo Anticancer Drug Screen. Data for tumor model Sarcoma M5076 (intraperitoneal) in B6D2F1 (BDF1) mice. As to conditions: endpoint: median survival time, higher = longer survival. As for the experimental part:
The antitumor activity of compounds was measured in mice bearing transplantable tumors. Survival or tumor size were measured and the results are expressed as the measurement made in the treated group (T) divided by the measurement made in the vehicle treated control group (C). The tumor model used in this assay is Sarcoma M5076 (intraperitoneal) in B6D2F1 (BDF1) mice

Where [1] appears, read: dose: 25.0 mg/kg/injection, schedule: Q04DX004 (ip), vehicle: saline with Tween-80.
Where [2] appears, read: dose: 50.0 mg/kg/injection, schedule: Q04DX004 (ip), vehicle: saline with Tween-80.
Setting [3] is: dose: 100.0 mg/kg/injection, schedule: Q04DX004 (ip), vehicle: saline with Tween-80.
The mark [4] stands for this setting: dose: 3.12 mg/kg/injection, schedule: Q01DX009 (ip), vehicle: saline.
[5] abbreviates: dose: 0.38 mg/kg/injection, schedule: Q01DX009 (ip), vehicle: saline + alcohol.
Setting [6] is: dose: 0.75 mg/kg/injection, schedule: Q01DX009 (ip), vehicle: saline + alcohol.
Setting [7] is: dose: 1.5 mg/kg/injection, schedule: Q01DX009 (ip), vehicle: saline + alcohol.
[8] abbreviates: dose: 3.0 mg/kg/injection, schedule: Q01DX009 (ip), vehicle: saline + alcohol.
Setting [9] is: dose: 200.0 mg/kg/injection, schedule: Q04DX004 (ip), vehicle: saline with Tween-80.

Consider `Nc1nc(=S)c2[nH]cnc2[nH]1`, for which the T/C (dose: 0.75 mg/kg/injection, schedule: Q04DX005 (ip), vehicle: alkali diluted with saline) was 101 % of control; the T/C (dose: 2.0 mg/kg/injection, schedule: Q04DX005 (ip), vehicle: alkali diluted with saline) is 92 % of control; the T/C (dose: 6.0 mg/kg/injection, schedule: Q04DX005 (ip), vehicle: alkali diluted with saline) is 157 % of control.

Take `COc1cc2cc3c(c(O)c2c(O)c1/C=C/C(C)C)C(=O)CC(C)(OC(C)=O)C3` (stereo unspecified): the T/C (dose: 0.31 mg/kg/injection, schedule: Q01DX009 (ip), vehicle: Klucel (hydroxypropylcellulose) (HPC)) is 111 % of control; the T/C (dose: 0.63 mg/kg/injection, schedule: Q01DX009 (ip), vehicle: Klucel (hydroxypropylcellulose) (HPC)) is 108 % of control and 115 % of control; the T/C (dose: 1.25 mg/kg/injection, schedule: Q01DX009 (ip), vehicle: Klucel (hydroxypropylcellulose) (HPC)) was 111 % of control and 119 % of control.

For `Cc1c2ccncc2c(C)c2c1[nH]c1ccccc12`, the T/C reads like this: (dose: 40.0 mg/kg/injection, schedule: Q04DX004 (ip), vehicle: saline with Tween-80) 170 % of control; (dose: 80.0 mg/kg/injection, schedule: Q04DX004 (ip), vehicle: saline with Tween-80) 191 % of control.

Consider `O=Cc1c(O)c2ccccc2[nH]c1=O`, for which the T/C under setting [1] was 98 % of control, the T/C under setting [2] is 124 % of control and the T/C under setting [3] is 101 % of control.

`Oc1cc(O)c(-c2c(O)cc(O)cc2O)c(O)c1` (tested in a mixture with another compound): the T/C by setting is: (dose: 1.56 mg/kg/injection, schedule: Q01DX009 (ip), vehicle: saline) 118 % of control; under setting [4], 122 % of control; (dose: 3.75 mg/kg/injection, schedule: Q01DX009 (ip), vehicle: saline) 119 % of control; (dose: 6.25 mg/kg/injection, schedule: Q01DX009 (ip), vehicle: saline) 118 % of control; (dose: 12.5 mg/kg/injection, schedule: Q01DX009 (ip), vehicle: saline) 123 % of control; (dose: 15.0 mg/kg/injection, schedule: Q01DX009 (ip), vehicle: saline) 123 % of control.

As for `CC(=O)N(C)c1ccc(Nc2cc(C)[nH]c3ccc4ncnc4c23)cc1`, where the note is “dose: 5.0 mg/kg/injection, schedule: Q04DX004 (ip), vehicle: saline”, the T/C is 96 % of control.

For `CN(Cc1cnc2nc(N)nc(N)c2n1)c1ccc(C(=O)N[C@@H](CCC(=O)O)C(=O)O)cc1`, the T/C was 93 % of control (dose: 1.7 mg/kg/injection, schedule: Q01DX009 (ip), vehicle: sodium bicarbonate); 108 % of control (dose: 2.0 mg/kg/injection, schedule: Q04DX005 (ip), vehicle: sodium bicarbonate); 101 % of control (dose: 2.6 mg/kg/injection, schedule: Q01DX009 (ip), vehicle: sodium bicarbonate); 101 % of control (dose: 4.0 mg/kg/injection, schedule: Q04DX005 (ip), vehicle: sodium bicarbonate); 112 % of control (dose: 8.0 mg/kg/injection, schedule: Q04DX005 (ip), vehicle: sodium bicarbonate).

`CCC(O)CC1OC2(CCC1C)CC1OC(=O)/C=C\C(C)(O)C(O)C(C)C(O)C(OC3CC(OC)C(O)C(C)O3)C(O)C(C)(O)CCC/C=C/C3CC(C)COC3(O)CC(O2)C1C` (stereo unspecified): the T/C reads like this: (dose: 0.25 mg/kg/injection, schedule: Q01DX009 (ip), vehicle: saline + alcohol) 105 % of control; (dose: 0.5 mg/kg/injection, schedule: Q01DX009 (ip), vehicle: saline + alcohol) 113 % of control; (dose: 1.0 mg/kg/injection, schedule: Q01DX009 (ip), vehicle: saline + alcohol) 104 % of control; (dose: 2.0 mg/kg/injection, schedule: Q01DX009 (ip), vehicle: saline + alcohol) 111 % of control.

As for `O=P1(N(CCCl)CCCl)NCCCO1` (stereo unspecified), the T/C (dose: 10.0 mg/kg/injection, schedule: Q04DX005 (ip), vehicle: saline) is 180 % of control.

Turning to `O=c1[nH]cc(F)c(=O)[nH]1`, the T/C was 185 % of control (dose: 6.25 mg/kg/injection, schedule: Q04DX005 (ip), vehicle: saline); 117 % of control (dose: 16.0 mg/kg/injection, schedule: Q01DX009 (ip), vehicle: saline); 123 % of control (dose: 21.6 mg/kg/injection, schedule: Q04DX004 (ip), vehicle: saline); 112 % of control (dose: 50.0 mg/kg/injection, schedule: Q04DX005 (ip), vehicle: saline); 154 % of control (dose: 100.0 mg/kg/injection, schedule: Q04DX004 (ip), vehicle: saline); 176 % of control (dose: 100.0 mg/kg/injection, schedule: Q04DX005 (ip), vehicle: saline).

For the compound `Cc1c2ccccc2c(C)c2c1cc(C(=O)O)c1ccccc12`, the T/C runs as follows: (dose: 25.0 mg/kg/injection, schedule: Q04DX004 (ip), vehicle: sodium bicarbonate) 109 % of control; (dose: 100.0 mg/kg/injection, schedule: Q04DX004 (ip), vehicle: sodium bicarbonate) 110 % of control; (dose: 200.0 mg/kg/injection, schedule: Q04DX004 (ip), vehicle: sodium bicarbonate) 116 % of control; (dose: 400.0 mg/kg/injection, schedule: Q04DX004 (ip), vehicle: sodium bicarbonate) 110 % of control.

Consider `O=C1N[C@H]2[C@H](O)[C@H](O)[C@@H](O)[C@H](O)[C@@H]2c2cc3c(c(O)c21)OCO3`, for which the T/C runs as follows: under setting [5], 153 % of control; under setting [6], 159 % of control; under setting [7], 161 % of control and 166 % of control; under setting [8], 184 % of control and 165 % of control.

Consider `COc1cc(C)c(C2NC(=O)c3ccccc3N2)cc1C` (stereo unspecified), for which the T/C runs as follows: (dose: 12.5 mg/kg/injection, schedule: Q04DX004 (ip), vehicle: saline with Tween-80) 102 % of control; under setting [1], 102 % of control; under setting [2], 90 % of control; under setting [3], 105 % of control; under setting [9], 124 % of control.

As to `CN=C(N)N/N=C(\C)c1ccc2sc3ccc(/C(C)=N/NC(N)=NC)cc3c2c1`, the T/C by setting is: under setting [2], 113 % of control; under setting [3], 105 % of control; under setting [9], 119 % of control.

With `S=c1nc[nH]c2nc[nH]c12`, the T/C is, setting by setting: (dose: 20.0 mg/kg/injection, schedule: Q04DX005 (ip), vehicle: alkali diluted with saline) 96 % of control; (dose: 80.0 mg/kg/injection, schedule: Q04DX005 (ip), vehicle: alkali diluted with saline) 120 % of control.

Regarding `NC1=NC(O)C=C1` (stereo unspecified), the T/C by setting is: under setting [4], 118 % of control; (dose: 20.0 mg/kg/injection, schedule: Q01DX009 (ip), vehicle: saline) 152 % of control; (dose: 25.0 mg/kg/injection, schedule: Q01DX009 (ip), vehicle: saline) 160 % of control; (dose: 40.0 mg/kg/injection, schedule: Q01DX009 (ip), vehicle: saline) 152 % of control; (dose: 50.0 mg/kg/injection, schedule: Q01DX009 (ip), vehicle: saline) 178 % of control.

For `CN(C)CCN1C(=O)c2cccc3cc(N)cc(c23)C1=O`, the T/C was 109 % of control (dose: 4.5 mg/kg/injection, schedule: Q04DX004 (ip), vehicle: acid diluted with saline); 107 % of control (dose: 9.0 mg/kg/injection, schedule: Q04DX004 (ip), vehicle: acid diluted with saline); 115 % of control (dose: 18.0 mg/kg/injection, schedule: Q04DX004 (ip), vehicle: acid diluted with saline).

Consider `O=C(O)c1ccc(C(=O)O)c(C(=O)O)c1.[NH-]C1CCCCC1[NH-].[Pt+2]`, for which the T/C is, setting by setting: (dose: 3.11 mg/kg/injection, schedule: Q04DX005 (ip), vehicle: sodium bicarbonate) 206 % of control; (dose: 5.18 mg/kg/injection, schedule: Q04DX005 (ip), vehicle: sodium bicarbonate) 181 % of control; (dose: 8.64 mg/kg/injection, schedule: Q04DX005 (ip), vehicle: sodium bicarbonate) 216 % of control; (dose: 14.4 mg/kg/injection, schedule: Q04DX005 (ip), vehicle: sodium bicarbonate) 245 % of control; (dose: 24.0 mg/kg/injection, schedule: Q04DX005 (ip), vehicle: sodium bicarbonate) 381 % of control; (dose: 40.0 mg/kg/injection, schedule: Q04DX005 (ip), vehicle: sodium bicarbonate) 87 % of control.

For `CCC/C=C/C=C/C(=O)OC1C(C)C2(O)C3C=C(C)C(=O)C3CC(COC(C)=O)=CC2C2C(C)(C)C12OC(=O)C(C)C` (stereo unspecified), the T/C under setting [5] was 110 % of control; the T/C under setting [6] was 103 % of control; the T/C under setting [7] is 110 % of control; the T/C under setting [8] is 114 % of control; the T/C (dose: 6.0 mg/kg/injection, schedule: Q01DX009 (ip), vehicle: saline + alcohol) was 115 % of control.
